Results: publication PMC4917448 (Journal of biomolecular screening, 2016)

Experiments:
[1] = system: HDAC I/II; assay: HDAC-Glo I/II assay in HCT116 cells; type: cell-based, human; conditions: for HDAC-Glo: Efficacy, HCT116 / Efficacy, HDAC-Glo I/II HCT116 assay: maximal response
[2] = system: HDAC I/II; assay: HDAC-Glo I/II assay in human neural stem cells; type: cell-based; conditions: for HDAC-Glo: Efficacy, hNSC: maximal response
[3] = CellTiter-Glo cell viability assay in hNSC; type: cell-based, human; conditions: human, human neural stem cells (hNSC)
[4] = system: human neural stem cells; assay: CellTiter-Glo cell viability assay in hNSC; type: cell-based; conditions: for IC50: Homo sapiens, Neural stem cell, 1 h, read-out: Viability: IC50, hNSC
[5] = CellTiter-Glo cell viability assay in HCT116; type: cell-based, human; conditions: human, HCT116 cells
[6] = system: HCT116 cells; assay: CellTiter-Glo cell viability assay in HCT116; type: cell-based, human; conditions: for Viability: IC50, HCT116: cherry-pick confirmation, 1 hour
[7] = target: HDAC1 (Homo sapiens, UniProt Q13547); assay: Fluorogenic isoform-specific HDAC assay, HDAC1; type: biochemical; conditions: Figure 4C, Suppl. Table S4
Sequence of HDAC1 (Q13547 whole entry, canonical isoform): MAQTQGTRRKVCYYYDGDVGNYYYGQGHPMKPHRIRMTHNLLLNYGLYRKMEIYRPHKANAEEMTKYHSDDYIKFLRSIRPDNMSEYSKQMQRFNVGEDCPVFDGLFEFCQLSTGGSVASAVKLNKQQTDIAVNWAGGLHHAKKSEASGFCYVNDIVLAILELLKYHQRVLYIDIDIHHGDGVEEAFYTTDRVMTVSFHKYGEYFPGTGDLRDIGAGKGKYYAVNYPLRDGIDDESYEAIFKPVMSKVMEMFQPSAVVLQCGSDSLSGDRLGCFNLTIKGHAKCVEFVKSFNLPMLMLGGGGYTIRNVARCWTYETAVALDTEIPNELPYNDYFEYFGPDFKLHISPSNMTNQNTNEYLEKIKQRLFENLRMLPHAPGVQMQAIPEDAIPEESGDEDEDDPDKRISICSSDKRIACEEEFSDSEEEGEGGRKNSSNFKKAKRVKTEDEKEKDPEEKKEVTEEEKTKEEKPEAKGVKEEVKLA

[8] = target: HDAC2 (Homo sapiens, UniProt Q92769); assay: Fluorogenic isoform-specific HDAC assay, HDAC2; type: biochemical
Sequence of HDAC2 (Q92769 whole entry, canonical isoform): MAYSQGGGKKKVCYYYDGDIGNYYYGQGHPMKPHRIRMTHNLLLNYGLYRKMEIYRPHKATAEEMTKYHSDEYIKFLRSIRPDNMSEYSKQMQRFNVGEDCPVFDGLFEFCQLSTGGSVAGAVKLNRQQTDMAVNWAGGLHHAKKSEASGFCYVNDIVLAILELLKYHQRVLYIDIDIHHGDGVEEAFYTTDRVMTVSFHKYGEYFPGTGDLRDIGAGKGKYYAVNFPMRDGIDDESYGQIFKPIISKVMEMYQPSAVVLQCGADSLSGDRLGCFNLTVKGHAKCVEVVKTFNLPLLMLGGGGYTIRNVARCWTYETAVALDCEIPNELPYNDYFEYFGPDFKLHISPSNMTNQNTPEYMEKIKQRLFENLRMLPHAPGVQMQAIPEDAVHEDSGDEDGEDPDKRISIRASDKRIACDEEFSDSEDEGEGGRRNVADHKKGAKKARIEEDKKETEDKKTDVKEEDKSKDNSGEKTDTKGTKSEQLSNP

[9] = target: HDAC3 (Homo sapiens, UniProt O15379); assay: Fluorogenic isoform-specific HDAC assay, HDAC3; type: biochemical
Sequence of HDAC3 (O15379 whole entry, canonical isoform): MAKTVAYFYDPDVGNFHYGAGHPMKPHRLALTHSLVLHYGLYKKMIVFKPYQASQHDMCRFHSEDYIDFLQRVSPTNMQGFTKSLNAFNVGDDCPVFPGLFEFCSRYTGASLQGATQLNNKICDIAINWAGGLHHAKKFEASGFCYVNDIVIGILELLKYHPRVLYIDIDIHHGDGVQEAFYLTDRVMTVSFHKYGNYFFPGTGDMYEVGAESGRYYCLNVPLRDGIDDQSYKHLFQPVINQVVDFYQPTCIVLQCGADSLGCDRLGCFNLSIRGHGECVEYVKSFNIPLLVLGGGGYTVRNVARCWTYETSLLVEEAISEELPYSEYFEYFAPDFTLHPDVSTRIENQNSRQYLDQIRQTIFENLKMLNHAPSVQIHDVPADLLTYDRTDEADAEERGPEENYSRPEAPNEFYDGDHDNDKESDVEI
Sequence of HDAC3 (Q9Y618 395-489 partner limits assumed): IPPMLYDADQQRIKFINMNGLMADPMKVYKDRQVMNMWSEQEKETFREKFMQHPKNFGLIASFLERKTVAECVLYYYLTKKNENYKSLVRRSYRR

[10] = target: HDAC5 (Homo sapiens, UniProt Q9UQL6); assay: Fluorogenic isoform-specific HDAC assay, HDAC5; type: biochemical
Sequence of HDAC5 (Q9UQL6 whole entry, canonical isoform): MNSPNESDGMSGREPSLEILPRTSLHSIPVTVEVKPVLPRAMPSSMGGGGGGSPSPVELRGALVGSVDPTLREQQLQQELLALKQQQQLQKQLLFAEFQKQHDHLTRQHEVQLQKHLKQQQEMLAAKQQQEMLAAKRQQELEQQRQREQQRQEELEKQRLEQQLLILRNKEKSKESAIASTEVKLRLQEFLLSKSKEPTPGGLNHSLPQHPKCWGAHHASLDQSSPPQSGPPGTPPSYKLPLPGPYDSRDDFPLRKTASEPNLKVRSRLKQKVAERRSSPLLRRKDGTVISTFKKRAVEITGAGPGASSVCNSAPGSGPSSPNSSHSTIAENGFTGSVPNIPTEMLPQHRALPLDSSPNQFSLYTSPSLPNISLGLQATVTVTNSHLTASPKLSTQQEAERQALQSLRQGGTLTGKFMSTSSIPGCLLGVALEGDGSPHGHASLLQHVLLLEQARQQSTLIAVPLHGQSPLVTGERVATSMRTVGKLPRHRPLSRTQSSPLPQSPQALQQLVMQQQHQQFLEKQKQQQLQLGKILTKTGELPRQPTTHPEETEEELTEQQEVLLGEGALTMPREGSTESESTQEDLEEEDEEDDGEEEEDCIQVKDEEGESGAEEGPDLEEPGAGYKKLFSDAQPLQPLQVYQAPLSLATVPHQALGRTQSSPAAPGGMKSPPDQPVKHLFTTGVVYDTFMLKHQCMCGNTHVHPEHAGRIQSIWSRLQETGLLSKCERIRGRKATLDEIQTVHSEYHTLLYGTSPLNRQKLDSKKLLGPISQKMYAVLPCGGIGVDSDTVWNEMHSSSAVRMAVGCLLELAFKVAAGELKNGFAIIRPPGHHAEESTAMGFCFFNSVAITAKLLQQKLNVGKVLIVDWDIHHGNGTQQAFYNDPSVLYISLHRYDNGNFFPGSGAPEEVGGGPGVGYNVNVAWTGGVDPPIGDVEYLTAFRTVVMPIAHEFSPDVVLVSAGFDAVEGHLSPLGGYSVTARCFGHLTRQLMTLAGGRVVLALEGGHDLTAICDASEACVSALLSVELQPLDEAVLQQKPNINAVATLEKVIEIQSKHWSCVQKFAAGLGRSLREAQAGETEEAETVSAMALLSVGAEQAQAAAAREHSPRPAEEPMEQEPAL

[11] = target: T1, HDAC6 (Homo sapiens, UniProt Q9UBN7); assay: Fluorogenic isoform-specific HDAC assay, HDAC6; type: biochemical
T1 sequence (Q9UBN7 1-1215): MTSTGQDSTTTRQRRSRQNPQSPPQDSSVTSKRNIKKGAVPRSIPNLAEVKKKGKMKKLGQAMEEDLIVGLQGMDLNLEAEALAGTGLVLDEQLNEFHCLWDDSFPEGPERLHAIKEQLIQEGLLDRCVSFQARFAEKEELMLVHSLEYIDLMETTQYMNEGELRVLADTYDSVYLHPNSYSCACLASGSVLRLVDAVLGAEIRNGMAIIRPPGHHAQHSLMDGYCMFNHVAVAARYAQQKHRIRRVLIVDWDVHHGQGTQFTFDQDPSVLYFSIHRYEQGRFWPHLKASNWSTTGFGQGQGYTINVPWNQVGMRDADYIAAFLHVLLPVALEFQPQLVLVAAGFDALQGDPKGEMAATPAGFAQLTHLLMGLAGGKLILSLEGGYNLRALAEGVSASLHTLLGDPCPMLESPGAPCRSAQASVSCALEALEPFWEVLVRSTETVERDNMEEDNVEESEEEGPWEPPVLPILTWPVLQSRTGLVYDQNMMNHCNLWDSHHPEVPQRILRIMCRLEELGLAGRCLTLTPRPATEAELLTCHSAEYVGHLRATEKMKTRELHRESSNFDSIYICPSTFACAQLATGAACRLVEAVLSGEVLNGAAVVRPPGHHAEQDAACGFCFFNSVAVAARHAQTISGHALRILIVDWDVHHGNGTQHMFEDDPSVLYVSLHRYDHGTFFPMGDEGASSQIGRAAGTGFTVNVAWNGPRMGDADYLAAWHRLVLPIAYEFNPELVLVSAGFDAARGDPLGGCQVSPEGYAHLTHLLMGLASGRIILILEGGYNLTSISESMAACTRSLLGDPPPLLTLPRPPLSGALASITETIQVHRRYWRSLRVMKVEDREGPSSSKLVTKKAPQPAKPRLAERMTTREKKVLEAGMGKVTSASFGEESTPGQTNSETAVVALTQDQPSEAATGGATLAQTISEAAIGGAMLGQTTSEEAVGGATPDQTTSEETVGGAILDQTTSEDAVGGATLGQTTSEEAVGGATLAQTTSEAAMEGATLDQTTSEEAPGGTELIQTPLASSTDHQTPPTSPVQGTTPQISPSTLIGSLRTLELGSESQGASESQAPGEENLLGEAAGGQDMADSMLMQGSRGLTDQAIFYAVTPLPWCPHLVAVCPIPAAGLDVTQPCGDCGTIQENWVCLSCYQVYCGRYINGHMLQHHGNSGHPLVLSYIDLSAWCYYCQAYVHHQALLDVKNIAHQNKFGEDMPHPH

[12] = target: T2, HDAC7 (Homo sapiens, UniProt Q8WUI4); assay: Fluorogenic isoform-specific HDAC assay, HDAC7; type: biochemical; conditions: Figure 4D, Suppl. Table S4
T2 sequence (Q8WUI4 1-952): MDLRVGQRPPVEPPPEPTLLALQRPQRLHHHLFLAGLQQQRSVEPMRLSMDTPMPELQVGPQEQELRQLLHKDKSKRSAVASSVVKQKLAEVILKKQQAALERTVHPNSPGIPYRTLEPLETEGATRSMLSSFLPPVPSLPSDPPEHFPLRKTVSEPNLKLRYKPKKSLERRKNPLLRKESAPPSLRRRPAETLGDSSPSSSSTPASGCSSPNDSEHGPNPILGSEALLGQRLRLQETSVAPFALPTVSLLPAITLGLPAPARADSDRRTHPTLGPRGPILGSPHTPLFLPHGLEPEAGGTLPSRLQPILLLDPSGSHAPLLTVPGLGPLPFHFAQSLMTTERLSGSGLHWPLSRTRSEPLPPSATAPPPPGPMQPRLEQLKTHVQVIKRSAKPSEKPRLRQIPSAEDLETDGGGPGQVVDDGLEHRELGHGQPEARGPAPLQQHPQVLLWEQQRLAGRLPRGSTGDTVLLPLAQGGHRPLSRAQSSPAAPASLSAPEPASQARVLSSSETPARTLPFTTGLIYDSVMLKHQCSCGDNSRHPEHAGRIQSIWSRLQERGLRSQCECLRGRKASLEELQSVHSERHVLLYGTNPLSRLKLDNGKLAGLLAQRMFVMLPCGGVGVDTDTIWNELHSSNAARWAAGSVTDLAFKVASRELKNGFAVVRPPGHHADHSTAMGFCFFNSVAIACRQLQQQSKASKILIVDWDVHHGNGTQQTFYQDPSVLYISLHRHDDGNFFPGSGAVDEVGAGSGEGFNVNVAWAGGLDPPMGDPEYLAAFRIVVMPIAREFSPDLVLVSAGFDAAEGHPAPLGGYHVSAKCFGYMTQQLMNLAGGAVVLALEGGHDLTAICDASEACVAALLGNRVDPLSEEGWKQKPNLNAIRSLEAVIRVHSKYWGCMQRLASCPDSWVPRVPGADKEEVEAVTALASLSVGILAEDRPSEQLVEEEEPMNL

[13] = target: T3, HDAC8 (Homo sapiens, UniProt Q9BY41); assay: Fluorogenic isoform-specific HDAC assay, HDAC8; type: biochemical
T3 sequence (Q9BY41 1-377): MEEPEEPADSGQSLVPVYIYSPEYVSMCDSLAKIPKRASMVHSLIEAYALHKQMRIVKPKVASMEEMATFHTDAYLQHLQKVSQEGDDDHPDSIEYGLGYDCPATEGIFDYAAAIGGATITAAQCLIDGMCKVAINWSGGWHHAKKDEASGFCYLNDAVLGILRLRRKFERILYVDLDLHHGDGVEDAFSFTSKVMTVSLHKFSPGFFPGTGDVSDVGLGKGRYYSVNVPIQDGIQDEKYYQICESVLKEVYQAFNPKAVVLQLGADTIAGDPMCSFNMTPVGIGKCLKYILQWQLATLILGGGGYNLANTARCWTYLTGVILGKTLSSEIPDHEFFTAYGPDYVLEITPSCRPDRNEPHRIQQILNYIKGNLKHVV

[14] = target: HDAC9 (Homo sapiens, UniProt Q9UKV0); assay: Fluorogenic isoform-specific HDAC assay, HDAC9; type: biochemical
Sequence of HDAC9 (Q9UKV0 whole entry, canonical isoform): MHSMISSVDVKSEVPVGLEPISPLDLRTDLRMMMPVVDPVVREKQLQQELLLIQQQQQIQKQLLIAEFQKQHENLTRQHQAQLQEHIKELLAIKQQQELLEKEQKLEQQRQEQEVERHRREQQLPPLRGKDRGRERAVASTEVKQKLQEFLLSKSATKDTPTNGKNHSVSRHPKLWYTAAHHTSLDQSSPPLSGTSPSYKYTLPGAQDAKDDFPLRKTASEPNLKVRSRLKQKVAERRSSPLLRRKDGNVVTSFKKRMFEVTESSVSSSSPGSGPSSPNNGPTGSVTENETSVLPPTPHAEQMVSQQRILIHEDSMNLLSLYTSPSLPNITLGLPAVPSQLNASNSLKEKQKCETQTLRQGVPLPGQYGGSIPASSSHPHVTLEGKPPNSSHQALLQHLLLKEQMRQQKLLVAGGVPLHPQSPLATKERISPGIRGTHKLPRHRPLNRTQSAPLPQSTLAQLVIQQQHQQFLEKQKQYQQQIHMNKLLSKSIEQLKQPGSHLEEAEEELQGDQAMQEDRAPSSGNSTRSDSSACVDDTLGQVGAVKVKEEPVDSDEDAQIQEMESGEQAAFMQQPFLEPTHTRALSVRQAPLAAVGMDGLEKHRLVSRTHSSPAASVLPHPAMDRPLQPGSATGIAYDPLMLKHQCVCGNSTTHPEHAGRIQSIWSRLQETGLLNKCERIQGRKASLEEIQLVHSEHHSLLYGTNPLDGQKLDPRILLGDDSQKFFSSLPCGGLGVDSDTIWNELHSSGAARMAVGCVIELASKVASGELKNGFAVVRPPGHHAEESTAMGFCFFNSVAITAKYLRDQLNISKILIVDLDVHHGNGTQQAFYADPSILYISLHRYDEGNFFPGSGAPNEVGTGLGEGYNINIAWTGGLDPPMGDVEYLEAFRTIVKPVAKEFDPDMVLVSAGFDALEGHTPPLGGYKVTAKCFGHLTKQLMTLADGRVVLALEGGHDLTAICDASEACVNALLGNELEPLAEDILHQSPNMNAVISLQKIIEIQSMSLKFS

[15] = system: HDAC I/II; assay: HDAC-Glo I/II assay in HEK293 cells; type: cell-based, human; conditions: read-out: average IC50, HDAC-Glo I/II activity; HEK293, assay optimization, Figure 1A
[16] = system: HDAC I/II; assay: HDAC-Glo I/II assay in HepG2 cells; type: cell-based, human; conditions: read-out: average IC50, HDAC-Glo I/II activity; HepG2, assay optimization, Figure 1A
[17] = system: HDAC I/II; assay: HDAC-Glo I/II assay in SU-DHL-6 cells; type: cell-based, human; conditions: read-out: average IC50, HDAC-Glo I/II activity; SU-DHL-6, assay optimization, Figure 1A
[18] = system: class I and II HDAC enzymes; assay: Panel of fluorogenic assays against ten class I and II HDAC isoforms; type: biochemical, human; conditions: 20 μM
[19] = read-out: HDAC-Glo: IC50, HCT116, cherry-pick confirmation, 11 concentrations, 1 hour
[20] = read-out: IC50, HDAC-Glo I/II HCT116 assay, powder confirmation
[21] = read-out: HDAC-Glo: IC50, hNSC, cherry-pick confirmation, 11 concentrations, 1 hour

| IC50 [1, 19] | IC50 [1, 20] | IC50 [2, 21] | Viability: IC50, HCT116 [6] | SMILES | HDAC-Glo: Efficacy, HCT116 ([1]; cherry-pick confirmation) | Efficacy, HDAC-Glo I/II HCT116 assay ([1]; powder confirmation) | HDAC-Glo: Efficacy, hNSC ([2]; cherry-pick confirmation) | viability at 1 h [3] | IC50 [4] | also measured |
| --- | --- | --- | --- | --- | --- | --- | --- | --- | --- | --- |
| 1600 ± 100 nM | 1350 ± 140 nM | 1050 ± 120 nM | – | CC(=O)Oc1ccccc1C(=O)Nc1ncc([N+](=O)[O-])s1 [Nitazoxanide] | 116 ± 1% | 99 ± 0% | 104 ± 1% | 40% | 12400 ± 4650 nM | viability at 1 h [5]: 62%; IC50 ([6]; Homo sapiens, HCT-116, 1 h, read-out: Viability: IC50, HCT116): 23600 ± 12000 nM |
| 5900 nM | 10300 ± 1060 nM | 4180 nM | Inactive | Oc1cc(O)cc(/C=C/c2ccc(O)c(O)c2)c1 [Piceatannol] | 105 ± 7% | 60 ± 4% | 108 ± 4% | 25% | 19500 ± 2490 nM | inhibition of HDAC-Glo I/II luminescence signals ([2]; hNSCs, cherry-pick confirmation, Figure 2): completely inhibited; inhibition of HDAC activity, HDAC1 [7]: over 30%; IC50 [8]: 5040 nM; IC50 [9]: 23300 nM; IC50 [10]: 890 nM; inhibition of HDAC activity, HDAC5 ([10]; Figure 4D, Suppl. Table S4): over 30%; IC50 [11]: 8220 nM; inhibition of HDAC activity, HDAC7 [12]: over 30%; IC50 [13]: 3420 nM; IC50 [14]: 9950 nM; inhibition of HDAC activity, HDAC9 ([14]; Figure 4D, Suppl. Table S4): over 30% |
| 70 ± 10 nM | 110 ± 10 nM | 100 ± 20 nM | Inactive | CC(/C=C/C(=O)NO)=C\[C@@H](C)C(=O)c1ccc(N(C)C)cc1 [Trichostatin A] | 119 ± 5% | 99 ± 0% | 114 ± 6% | – | – | HDAC I/II inhibitory activity (in words) ([1]; HCT116 and HEK293 cells, validation with epigenetics libraries): greatly inhibited HDAC-Glo I/II activity; IC50 ([1]; read-out: IC50, HDAC-Glo I/II, HCT116 cells, time course, one hour treatment): 50 ± 30 nM; IC50 ([1]; read-out: average IC50, HDAC-Glo I/II activity, HCT116, assay optimization, Figure 1A): 250 nM; IC50 [15]: 90 nM; IC50 [16]: 50 nM; IC50 ([2]; read-out: average IC50, HDAC-Glo I/II activity, hNSC, assay optimization, Figure 1A): 440 nM; IC50 [17]: 100 nM; Viability: IC50, hNSC ([4]; cherry-pick confirmation, 1 hour): Inactive; inhibition against all class I and II HDAC enzymes [18]: over 80%; inhibition of HDAC isoforms (in words) ([18]; Figure 3): inhibited activities of all isoforms |
